Common to all, as to format: functional
The subject of assay [1] is Staphylococcus aureus. Description: Antibacterial activity against hospital-acquired methicillin-resistant Staphylococcus aureus 393/10 after 18 hrs by twofold serial agar dilution technique. Conditions: 393/10, 18 h. In general terms: In agar dilution, organisms are placed on agar that contains the substance at set levels.
The subject of assay [2] is Staphylococcus aureus. Description: Antibacterial activity against hospital-acquired methicillin-resistant Staphylococcus aureus 394/10 after 18 hrs by twofold serial agar dilution technique. Conditions: 394/10, 18 h.
Assay [3] has as its system Staphylococcus aureus. Description: Antibacterial activity against hospital-acquired methicillin-resistant Staphylococcus aureus 399/10 after 18 hrs by twofold serial agar dilution technique. The conditions noted are these: 399/10, 18 h.
For assay [4], the system named is Staphylococcus aureus. The experiment in a line: Antibacterial activity against hospital-acquired methicillin-resistant Staphylococcus aureus 400/10 after 18 hrs by twofold serial agar dilution technique. The conditions noted are these: 400/10, 18 h.
The test system of assay [5] is Staphylococcus aureus. Description: Antibacterial activity against hospital-acquired methicillin-resistant Staphylococcus aureus 401/10 after 18 hrs by twofold serial agar dilution technique. Conditions: 401/10, 18 h.
In assay [6] the test system is Staphylococcus aureus. The experiment in a line: Antibacterial activity against hospital-acquired methicillin-resistant Staphylococcus aureus 450/11 after 18 hrs by twofold serial agar dilution technique. The conditions noted are these: 450/11, 18 h.
For assay [7], the system named is Staphylococcus aureus. Description: Antibacterial activity against hospital-acquired methicillin-resistant Staphylococcus aureus 451/11 after 18 hrs by twofold serial agar dilution technique. The conditions noted are these: 451/11, 18 h.
Assay [8] has as its system Staphylococcus aureus. The experiment in a line: Antibacterial activity against hospital-acquired methicillin-resistant Staphylococcus aureus 452/11 after 18 hrs by twofold serial agar dilution technique. Conditions: 452/11, 18 h.
Assay [9] has as its system Staphylococcus aureus. Description: Antibacterial activity against hospital-acquired methicillin-resistant Staphylococcus aureus 481/11 after 18 hrs by twofold serial agar dilution technique. The conditions noted are these: 481/11, 18 h.
The test system of assay [10] is Staphylococcus aureus. Description: Antibacterial activity against hospital-acquired methicillin-resistant Staphylococcus aureus 482/11 after 18 hrs by twofold serial agar dilution technique. Conditions: 482/11, 18 h.
In assay [11] the test system is Staphylococcus aureus. Description: Antibacterial activity against hospital-acquired methicillin-sensitive Staphylococcus aureus 440/11 after 18 hrs by twofold serial agar dilution technique. The conditions noted are these: 440/11, 18 h.
In assay [12] the test system is Staphylococcus aureus. The experiment in a line: Antibacterial activity against hospital-acquired methicillin-sensitive Staphylococcus aureus 441/11 after 18 hrs by twofold serial agar dilution technique. The conditions noted are these: 441/11, 18 h.
The test system of assay [13] is Staphylococcus aureus. The experiment in a line: Antibacterial activity against hospital-acquired methicillin-sensitive Staphylococcus aureus 442/11 after 18 hrs by twofold serial agar dilution technique. The conditions noted are these: 442/11, 18 h.
Assay [14] relates to Staphylococcus aureus. The experiment in a line: Antibacterial activity against hospital-acquired methicillin-sensitive Staphylococcus aureus 443/11 after 18 hrs by twofold serial agar dilution technique. The conditions noted are these: 443/11, 18 h.
The test system of assay [15] is Staphylococcus aureus. The experiment in a line: Antibacterial activity against hospital-acquired methicillin-sensitive Staphylococcus aureus 444/11 after 18 hrs by twofold serial agar dilution technique. Conditions: 444/11, 18 h.
The subject of assay [16] is Staphylococcus aureus. The experiment in a line: Antibacterial activity against hospital-acquired methicillin-sensitive Staphylococcus aureus 445/11 after 18 hrs by twofold serial agar dilution technique. Conditions: 445/11, 18 h.
Assay [17] deals with Staphylococcus aureus. The experiment in a line: Antibacterial activity against hospital-acquired methicillin-sensitive Staphylococcus aureus 446/11 after 18 hrs by twofold serial agar dilution technique. Conditions: 446/11, 18 h.
The subject of assay [18] is Staphylococcus aureus. Description: Antibacterial activity against hospital-acquired methicillin-sensitive Staphylococcus aureus 447/11 after 18 hrs by twofold serial agar dilution technique. Conditions: 447/11, 18 h.
Assay [19] deals with Staphylococcus aureus. The experiment in a line: Antibacterial activity against hospital-acquired methicillin-sensitive Staphylococcus aureus 448/11 after 18 hrs by twofold serial agar dilution technique. Conditions: 448/11, 18 h.
Assay [20] concerns Staphylococcus aureus. Description: Antibacterial activity against hospital-acquired methicillin-sensitive Staphylococcus aureus 449/11 after 18 hrs by twofold serial agar dilution technique. Conditions: 449/11, 18 h.

Values after ≈ are worked out from the molar mass of the structure shown.

Consider one compound from ChEMBL document CHEMBL2046376, “Synthesis and antimicrobial activity of amide derivatives of polyether antibiotic-salinomycin” (2012).

Consider `CC[C@@]1([C@@H]2O[C@@H]([C@H]3O[C@@](O)(CO)[C@H](C)C[C@@H]3C)C[C@@H]2C)CC[C@H]([C@]2(C)CC[C@]3(C[C@H](O)[C@@H](C)[C@@H]([C@@H](C)[C@@H](OC)[C@H](C)C(=O)O)O3)O2)O1` [MONENSIN], for which the MIC is 4 µg/mL (≈ 5.96 µM) in the assay on Staphylococcus aureus [1]; 4 µg/mL (≈ 5.96 µM) with Staphylococcus aureus [2]; 2 µg/mL (≈ 2.98 µM) with Staphylococcus aureus [3]; 2 µg/mL (≈ 2.98 µM) against Staphylococcus aureus [4]; 2 µg/mL (≈ 2.98 µM) in the assay on Staphylococcus aureus [5]; 2 µg/mL (≈ 2.98 µM) against Staphylococcus aureus [6]. In addition, the MIC in the assay with Staphylococcus aureus [7] is 4 µg/mL (≈ 5.96 µM); with Staphylococcus aureus [8] it was 2 µg/mL (≈ 2.98 µM); against Staphylococcus aureus [9] it was 2 µg/mL (≈ 2.98 µM); in the assay on Staphylococcus aureus [10], 2 µg/mL (≈ 2.98 µM); in the assay on Staphylococcus aureus [11] it was 2 µg/mL (≈ 2.98 µM); in the assay with Staphylococcus aureus [12], 4 µg/mL (≈ 5.96 µM). In addition, the MIC came to 2 µg/mL (≈ 2.98 µM) in the assay on Staphylococcus aureus [13]; 4 µg/mL (≈ 5.96 µM) in the assay on Staphylococcus aureus [14]; 4 µg/mL (≈ 5.96 µM) against Staphylococcus aureus [15]; 2 µg/mL (≈ 2.98 µM) against Staphylococcus aureus [16]; 2 µg/mL (≈ 2.98 µM) in the assay with Staphylococcus aureus [17]; 2 µg/mL (≈ 2.98 µM) against Staphylococcus aureus [18]. For the same compound, the MIC in the assay with Staphylococcus aureus [19] and in the assay on Staphylococcus aureus [20] was 2 µg/mL (≈ 2.98 µM) throughout.

The MIC is the smallest concentration in the dilution series that meets the test's criterion for growth inhibition. A lower MIC goes with a more susceptible organism.
